Measured values: ChEMBL document CHEMBL1212769, “Multiple-dose safety, tolerability, and pharmacokinetics of oral nemonoxacin (TG-873870) in healthy volunteers” (Antimicrob Agents Chemother, 2010)

Columns and labels:
[1] = Renal clearance in human at […], po measured on day 10; type: ADME, organism-based, Kidney; settings: in vivo, read-out: CL_renal (converted)
[2] = AUC (0 to last) in human at 250 mg/kg, po measured on day 1; type: ADME, organism-based; parameters: time 0 - last, dose 250 mg/kg, route oral; settings: plasma
[3] = Oral clearance in human at 75 mg/kg measured on day 10; type: ADME, organism-based; parameters: dose 75 mg/kg; settings: in vivo
Homo sapiens [4] = assay: Toxicity in human assessed as occurrence of abdominal pain at 500 […], po administered as single dose; type: organism-based, Abdomen; parameters: route oral; settings: in vivo
[5] = Tmax in human at 750 […], po measured on day 1; type: ADME, organism-based; parameters: route oral; settings: in vivo
[6] = Clearance in human assessed as compound recovered in urine at 1000 […], po measured on day 1 up to 24 hrs post dose; type: ADME, organism-based; parameters: dose 1000 mg/kg, route oral; settings: read-out: amount in urine
[7] = Clearance in human assessed as compound recovered in urine at 250 mg/kg, po measured on day 1 up to 24 hrs post dose; type: ADME, organism-based; parameters: dose 250 mg/kg, route oral; settings: read-out: amount in urine
[8] = Renal clearance in human at 750 […], po measured on day 1; type: ADME, organism-based, Kidney; parameters: route oral; settings: in vivo, read-out: CL_renal (converted)
[9] = Renal clearance in human at 1000 […], po measured on day 10; type: ADME, organism-based, Kidney; parameters: route oral; settings: in vivo, read-out: CL_renal (converted)
Homo sapiens [10] = assay: Toxicity in human assessed as occurrence of diarrhea at 250 […], po administered as single dose; type: organism-based; parameters: route oral; settings: in vivo
[11] = AUC (0 to 24 hrs) in human at 750 mg/kg, po measured on day 10; type: ADME, organism-based; parameters: time < 24 hr, dose 750 mg/kg, route oral; settings: plasma
[12] = Tmax in human at 75 […], po measured on day 10; type: ADME, organism-based; parameters: dose 75 mg/kg, route oral; settings: in vivo
[13] = Tmax in human at 500 […], po measured on day 1; type: ADME, organism-based; parameters: route oral; settings: in vivo
[14] = AUC (0 to 24 hrs) in human at 1000 […], po measured on day 10; type: ADME, organism-based; parameters: time < 24 hr, dose 1000 mg/kg, route oral; settings: plasma
[15] = Clearance in human assessed as compound recovered in urine at 1000mg/kg, po measured on day 10 up to 24 hrs post dose; type: ADME, organism-based; settings: read-out: amount in urine
[16] = Cmax in human at 250 […], po measured on day 1; type: ADME, organism-based; parameters: dose 250 mg/kg, route oral; settings: in vivo
[17] = Renal clearance in human at 250 […], po measured on day 1; type: ADME, organism-based, Kidney; parameters: route oral; settings: in vivo, read-out: CL_renal (converted)
[18] = AUC (0 to last) in human at 500 mg/kg, po measured on day 10; type: ADME, organism-based; parameters: time 0 - last, dose 500 mg/kg, route oral; settings: plasma
[19] = Clearance in human assessed as compound recovered in urine at 75 mg/kg, po measured on day 10 up to 24 hrs post dose; type: ADME, organism-based; parameters: dose 75 mg/kg, route oral; settings: read-out: amount in urine
Homo sapiens [20] = assay: Toxicity in human assessed as occurrence of rashes at 75 […], po administered as single dose; type: organism-based; parameters: route oral; settings: in vivo
[21] = AUC (0 to last) in human at 250 mg/kg, po measured on day 10; type: ADME, organism-based; parameters: time 0 - last, dose 250 mg/kg, route oral; settings: plasma
Homo sapiens [22] = assay: Toxicity in human assessed as occurrence of somnolence at 500 […], po administered as single dose; type: organism-based; parameters: route oral; settings: in vivo
[23] = AUC (0 to last) in human at 75 mg/kg, po measured on day 1; type: ADME, organism-based; parameters: time 0 - last, dose 75 mg/kg, route oral; settings: plasma
[24] = Tmax in human at 750 […], po measured on day 10; type: ADME, organism-based; parameters: dose 750 mg/kg, route oral; settings: in vivo
[25] = AUC (0 to 24 hrs) in human at 500 mg/kg, po measured on day 1; type: ADME, organism-based; parameters: time < 24 hr, dose 500 mg/kg, route oral; settings: plasma
[26] = Terminal half life in human at 500 […], po measured on day 10; type: ADME, organism-based; parameters: route oral; settings: in vivo, read-out: beta t1/2 (converted)
Homo sapiens [27] = assay: Toxicity in human assessed as occurrence of rashes at 1000 […], po administered as single dose; type: organism-based; parameters: route oral; settings: in vivo
[28] = AUC (0 to 24 hrs) in human at 75 mg/kg, po measured on day 1; type: ADME, organism-based; parameters: time < 24 hr, dose 75 mg/kg, route oral; settings: plasma
[29] = Renal clearance in human at 250 […], po measured on day 10; type: ADME, organism-based, Kidney; parameters: route oral; settings: in vivo, read-out: CL_renal (converted)
[30] = Clearance in human assessed as compound recovered in urine at 500 mg/kg, po measured on day 1 up to 24 hrs post dose; type: ADME, organism-based; parameters: dose 500 mg/kg, route oral; settings: read-out: amount in urine
Homo sapiens [31] = assay: Toxicity in human assessed as occurrence of somnolence at 1000 […], po administered as single dose; type: organism-based; parameters: route oral; settings: in vivo
[32] = Clearance in human assessed as compound recovered in urine at 75 mg/kg, po measured on day 1 up to 24 hrs post dose; type: ADME, organism-based; parameters: dose 75 mg/kg, route oral; settings: read-out: amount in urine
[33] = Oral clearance in human at 250 mg/kg measured on day 10; type: ADME, organism-based; parameters: dose 250 mg/kg; settings: in vivo
[34] = Cmax in human at 1000 […], po measured on day 10; type: ADME, organism-based; parameters: dose 1000 mg/kg, route oral; settings: in vivo
[35] = Cmax in human at 500 […], po measured on day 1; type: ADME, organism-based; parameters: dose 500 mg/kg, route oral; settings: in vivo
Homo sapiens [36] = assay: Toxicity in human assessed as occurrence of abdominal pain at 750 […], po administered as single dose; type: organism-based, Abdomen; parameters: route oral; settings: in vivo
Homo sapiens [37] = assay: Toxicity in human assessed as occurrence of dermatitis at 250 […], po administered as single dose; type: organism-based; parameters: route oral; settings: in vivo
[38] = Cmax in human at 75 […], po measured on day 1; type: ADME, organism-based; parameters: dose 75 mg/kg, route oral; settings: in vivo
[39] = Oral clearance in human at 75 mg/kg measured on day 1; type: ADME, organism-based; parameters: dose 75 mg/kg; settings: in vivo
[40] = Oral clearance in human at 1000 […] measured on day 10; type: ADME, organism-based; parameters: dose 1000 mg/kg; settings: in vivo
[41] = Renal clearance in human at 1000 […], po measured on day 1; type: ADME, organism-based, Kidney; parameters: route oral; settings: in vivo, read-out: CL_renal (converted)
[42] = Renal clearance in human at 500 […], po measured on day 16; type: ADME, organism-based, Kidney; parameters: route oral; settings: in vivo, read-out: CL_renal (converted)
[43] = AUC (0 to last) in human at 750 mg/kg, po measured on day 10; type: ADME, organism-based; parameters: time 0 - last, dose 750 mg/kg, route oral; settings: plasma
[44] = Oral clearance in human at 750 […] measured on day 10; type: ADME, organism-based; settings: in vivo
[45] = AUC (0 to last) in human at 1000 […], po measured on day 1; type: ADME, organism-based; parameters: time 0 - last, dose 1000 mg/kg, route oral; settings: plasma
Homo sapiens [46] = assay: Toxicity in human assessed as occurrence of pollakiuria at 500 […], po administered as single dose; type: organism-based; parameters: route oral; settings: in vivo
[47] = Tmax in human at 75 […], po measured on day 1; type: ADME, organism-based; parameters: route oral; settings: in vivo
[48] = AUC (0 to 24 hrs) in human at 250 mg/kg, po measured on day 10; type: ADME, organism-based; parameters: time < 24 hr, dose 250 mg/kg, route oral; settings: plasma
[49] = Renal clearance in human at 500 […], po measured on day 1; type: ADME, organism-based, Kidney; parameters: route oral; settings: in vivo, read-out: CL_renal (converted)
Homo sapiens [50] = organism: Homo sapiens; assay: Plasma protein binding in human; settings: read-out: PPB (converted)
[51] = Oral clearance in human at 1000 […] measured on day 1; type: ADME, organism-based; parameters: dose 1000 mg/kg; settings: in vivo
Homo sapiens [52] = assay: Toxicity in human assessed as incidence of headache at 1000 […], po administered as single dose; type: organism-based; parameters: route oral; settings: in vivo
Homo sapiens [53] = assay: Toxicity in human assessed as occurrence of dermatitis at 500 […], po administered as single dose; type: organism-based; parameters: route oral; settings: in vivo
[54] = Cmax in human at 750 […], po measured on day 1; type: ADME, organism-based; parameters: dose 750 mg/kg, route oral; settings: in vivo

Compound `COc1c(N2C[C@@H](C)C[C@H](N)C2)ccc2c(=O)c(C(=O)O)cn(C3CC3)c12` [NEMONOXACIN] has a CL renal [1] of 93.8 mL/min, an AUC(0-t) [2] of 13700 ng·h/mL and a CL/F [3] of 224 mL/min. For the same compound, the Activity (Homo sapiens [4]) was 0%, the Tmax [5] was 1.5 h and the dose excreted at 24 h [6] was 47.9%. It also gave a dose excreted at 24 h [7] of 36.8%, a CL renal [8] of 133 mL/min and a CL renal [9] of 115 mL/min. The Activity (Homo sapiens [10]) was 0%, the AUC at 24 h [11] was 58400 ng·h/mL and the Tmax [12] was 0.92 h. The Tmax [13] was 1 h, the AUC at 24 h [14] was 74800 ng·h/mL and the dose excreted at 24 h [15] was 48.6%. The Cmax [16] was 2000 ng/mL, the CL renal [17] was 115 mL/min and the AUC(0-t) [18] was 46700 ng·h/mL. The dose excreted at 24 h [19] was 56.7%, the Activity (Homo sapiens [20]) was 0% and the AUC(0-t) [21] was 18700 ng·h/mL. The Activity (Homo sapiens [22]) was 0%, the AUC(0-t) [23] was 3780 ng·h/mL and the Tmax [24] was 1.51 h. For the same compound, the AUC(0-t) at 24 h [25] was 31600 ng·h/mL, the half-life [26] was 18.6 h and the Activity (Homo sapiens [27]) was 0%. For the same compound, the AUC(0-t) at 24 h [28] was 3780 ng·h/mL, the CL renal [29] was 129 mL/min and the dose excreted at 24 h [30] was 42.2%. It also gave an Activity (Homo sapiens [31]) of 0%, a dose excreted at 24 h [32] of 56.4% and a CL/F [33] of 223 mL/min. The Cmax [34] was 8200 ng/mL, the Cmax [35] was 5120 ng/mL and the Activity (Homo sapiens [36]) was 0%. It also gave an Activity (Homo sapiens [37]) of 0%, a Cmax [38] of 502 ng/mL and a CL/F [39] of 303 mL/min. It also gave a CL/F [40] of 193 mL/min, a CL renal [41] of 125 mL/min and a CL renal [42] of 113 mL/min. The AUC(0-t) [43] was 69300 ng·h/mL, the CL/F [44] was 189 mL/min and the AUC(0-t) [45] was 59600 ng·h/mL. It also gave an Activity (Homo sapiens [46]) of 0%, a Tmax [47] of 1.09 h and an AUC at 24 h [48] of 16100 ng·h/mL. It also gave a CL renal [49] of 115 mL/min, a fraction unbound (Homo sapiens [50]) of 0.84 and a CL/F [51] of 262 mL/min. For the same compound, the Activity (Homo sapiens [52]) was 0%, the Activity (Homo sapiens [53]) was 0% and the Cmax [54] was 5750 ng/mL.
